Assay results as given in US9521850B2 (University of Florida Research Foundation, Incorporated, priority 2012, dated 2016).
Values after ≈ are worked out from the molar mass of the structure shown.

Legend:
SecA of Ca. L. asiaticus = SecA of Ca. L. asiaticus (Candidatus Liberibacter asiaticus, UniProt A0ABM5NFG5); experiment: biochemical
A. tumefaciens = experiment: microbe, parasite or virus in culture; assay type: cell-based; conditions: Agrobacterium tumefaciens, 24 h
Liberibacter crescens = experiment: microbe, parasite or virus in culture; assay type: cell-based
Rhizobium etli = experiment: microbe, parasite or virus in culture; assay type: cell-based
Bradyrhizobium japonicum = experiment: microbe, parasite or virus in culture; assay type: cell-based
Xanthomonas citri = experiment: microbe, parasite or virus in culture; assay type: cell-based, Xanthomonas citri subsp. citri
Mesorhizobium loti = experiment: microbe, parasite or virus in culture; assay type: cell-based
Sinorhizobium meliloti = experiment: microbe, parasite or virus in culture; assay type: cell-based
[1] = system: Agrobacterium tumefaciens; experiment: microbe, parasite or virus in culture; assay type: cell-based
CLAS populations = experiment: Effect on CLAS populations, mean Ct by quantitative PCR (Example 2)
CLAS = CLAS transmission rate using graft-based approach (Example 3); assay type: in vivo; conditions: budwood treated at 500 μg/ml, grafted onto Valencia trees
Experimental: HLB-infected budwoods were collected in HLB infected grove in teaching block at CREC. The presence of CLAS titers in budwood was confirmed by qPCR.
C16 and streptomycin were applied at the rate of 500 μg/ml; water-treated budwood was used as check. The budwoods were placed in a glass bottle containing either treatment or water as check. The glass bottles were kept in a ventilation hood with light on to increase the evaporation rate, therefore, promoting the uptake of antibiotics. Leaf and bark samples were collected from each budwood and 100 mg were accurately weighed and used for DNA extraction with Promega genomic DNA extraction kit. CLAS populations in each sample were determined using standard qPCR protocol. Each DNA sample was run in triplicate wells.
After overnight treatment, the antibiotic-treated budwood was grafted onto 2-3 years old Valencia trees. A total of 15 trees were grafted for each treatment. […] Four leaves from the main stem of Valencia trees were sampled for DNA extraction and determination of CLAS populations.

Compound | MBC (Liberibacter crescens; 24 h) [µg/mL] | MIC (Liberibacter crescens; 24 h) [µg/mL] | MBC (Liberibacter crescens; 120 h) [µg/mL] | MIC (Liberibacter crescens; 120 h) [µg/mL] | MBC (Rhizobium etli; 24 hrs) [µg/mL] | MIC (Rhizobium etli; 24 hrs) [µg/mL] | MBC (Rhizobium etli; 120 hrs) [µg/mL] | MIC (Rhizobium etli; 120 hrs) [µg/mL] | MBC (Bradyrhizobium japonicum; 24 hrs) [µg/mL] | MIC (Bradyrhizobium japonicum; 24 hrs) [µg/mL] | MBC (Bradyrhizobium japonicum; 120 hrs) [µg/mL] | MIC (Bradyrhizobium japonicum; 120 hrs) [µg/mL] | MBC (Xanthomonas citri) [µg/mL] | MIC (Xanthomonas citri) [µg/mL] | MBC (Mesorhizobium loti) [µg/mL] | MIC (Mesorhizobium loti) [µg/mL] | MBC (Sinorhizobium meliloti) [µg/mL] | MIC (Sinorhizobium meliloti) [µg/mL] | MBC [1] [µg/mL] | MIC [1] [µg/mL] | further results
O=C1CCCC2=C1C(c1cccs1)Nc1ccc(C(=O)c3ccccc3)cc1N2 (stereo not drawn) [Compound C20, 7-benzoyl-11-(2-thienyl)-2,3,4,5,10,11-hexahydro-1H-diabenzo[b,e] [1,4]diazepin-1-one] | 16 (≈ 39.9 µM) | 16 (≈ 39.9 µM) | 32 (≈ 79.9 µM) | 32 (≈ 79.9 µM) | 64 (≈ 160 µM) | 32 (≈ 79.9 µM) | 64 (≈ 160 µM) | 32 (≈ 79.9 µM) | 32 (≈ 79.9 µM) | 16 (≈ 39.9 µM) | 64 (≈ 160 µM) | 16 (≈ 39.9 µM) | 32 (≈ 79.9 µM) | 16 (≈ 39.9 µM) | 16 (≈ 39.9 µM) | 8 (≈ 20 µM) | 16 (≈ 39.9 µM) | 16 (≈ 39.9 µM) | 128 (≈ 320 µM) | 32 (≈ 79.9 µM) | IC50 (SecA of Ca. L. asiaticus): 440 nM; MBC (A. tumefaciens): 256 µg/mL (≈ 639 µM)
CN(C)[C@@H]1C(O)=C(C(N)=O)C(=O)[C@@]2(O)C(O)=C3C(=O)c4c(O)cccc4[C@@](C)(O)[C@H]3[C@H](O)[C@@H]12 [Oxytetracycline, reference compound] | – | – | 8 (≈ 17.4 µM) | 8 (≈ 17.4 µM) | 4 (≈ 8.69 µM) | 4 (≈ 8.69 µM) | 4 (≈ 8.69 µM) | 4 (≈ 8.69 µM) | 4 (≈ 8.69 µM) | 4 (≈ 8.69 µM) | 4 (≈ 8.69 µM) | 4 (≈ 8.69 µM) | – | – | – | – | – | – | – | – | mean Ct value (CLAS populations) (CLAS populations; 2 days after treatment): 26.10 b; mean Ct value (CLAS populations) (CLAS populations; 4 days after treatment): 25.61 b; mean Ct value (CLAS populations) (CLAS populations; Before treatment): 25.36 a
COc1ccc(N(C(=O)c2ccc(-n3cnnn3)cc2)C2(C(=O)Nc3ccccc3C)CCCCC2)cc1 [SSC11, N-(4-methoxy-phenyl)-N-{1-[(2-methyl-phenyl)carbamoyl]cyclohexyl}-4-(1H-tetrazol-1-yl)benzamide] | 16 (≈ 31.3 µM) | 16 (≈ 31.3 µM) | 32 (≈ 62.7 µM) | 32 (≈ 62.7 µM) | 32 (≈ 62.7 µM) | 16 (≈ 31.3 µM) | 64 (≈ 125 µM) | 32 (≈ 62.7 µM) | 16 (≈ 31.3 µM) | 16 (≈ 31.3 µM) | 32 (≈ 62.7 µM) | 32 (≈ 62.7 µM) | 64 (≈ 125 µM) | 32 (≈ 62.7 µM) | 32 (≈ 62.7 µM) | 16 (≈ 31.3 µM) | 64 (≈ 125 µM) | 32 (≈ 62.7 µM) | 128 (≈ 251 µM) | 32 (≈ 62.7 µM) | –
[H]/N=C(/N)N[C@H]1[C@H](O)[C@@H](O)[C@H](O[C@@H]2O[C@@H](C)[C@](O)(C=O)[C@H]2O[C@@H]2O[C@@H](CO)[C@H](O)[C@@H](O)[C@@H]2NC)[C@@H](N/C(N)=N\[H])[C@@H]1O [Streptomycin, reference compound] | 16 (≈ 27.5 µM) | 16 (≈ 27.5 µM) | 32 (≈ 55 µM) | 32 (≈ 55 µM) | 4 (≈ 6.88 µM) | 4 (≈ 6.88 µM) | 16 (≈ 27.5 µM) | 16 (≈ 27.5 µM) | 32 (≈ 55 µM) | 32 (≈ 55 µM) | 32 (≈ 55 µM) | 32 (≈ 55 µM) | 32 (≈ 55 µM) | 32 (≈ 55 µM) | 32 (≈ 55 µM) | 16 (≈ 27.5 µM) | 128 (≈ 220 µM) | 64 (≈ 110 µM) | 128 (≈ 220 µM) | 64 (≈ 110 µM) | MBC (A. tumefaciens): 64 µg/mL (≈ 110 µM); CLAS transmission rate (% trees tested positive for CLAS) (CLAS; 3 months after grafting): 13.3%; CLAS transmission rate (% trees tested positive for CLAS) (CLAS; 6 months after grafting): 66.7%
